In US10364247B2, “Preparation and use of novel protein kinase inhibitors” (Ruijin Hospital Affiliated to Shanghai Jiao Tong University …, priority 2015, dated 2019):

Experiments:
Type in all cases: cell-based, murine
BaF3-BCR/ABL = target: T1, BaF3-BCR/ABL (Homo sapiens, UniProt P00519); assay: Antiproliferative activity, kinase-dependent Ba/F3 cells (MTT/MTS); conditions: 48 hours, cell viability, read-out: BCR/ABL IC50
T1 construct: fused on or other part: P11274 (Breakpoint cluster region protein)
Method: (§1) Following up on the kinome data, the ability of compounds disclosed in the present invention to inhibit proliferation of cells that are dependent on selected protein kinases was tested. […] In addition, compounds were assayed to measure their capacity to inhibit TIE1, LYN, EML4-ALK, INSR and HCK kinases.
(§2) The murine cell line used is the BaF/3 cell line transformed with BCR/ABL cDNA (BaF/3-p210) or BCR/ABL-T315I mutant (Ba/F3-p210-T315I). These cells are maintained in RPMI/10% fetal calf serum (RPMI/FCS) supplemented with penicillin 50 μg/mL, streptomycin 50 μg/mL and L-glutamine […]. Untransformed BaF/3 cells (Wt-BaF/3) are similarly maintained with the addition of 15% of WEHI conditioned medium as a source of IL3.
(§3) Cells were seeded at a density of 20,000 cells/well into 96-well plates.
(§4) The background control wells to which media with no cells added and the vehicle control wells were included on each plate in triplicate. Cell viability was determined using MTT (Sigma, St. Louis, Mo., USA) and MTS (Promega, Madison, Wis., USA), according to the manufacturer's instructions. Results were analyzed using GraphPad Prism 5.0 (GraphPad Software, San Diego, Calif.) and IC50 values were calculated from cell viability dose-response curves and defined as the concentration of compound needed to reduce cell viability to 50% of a vehicle control (DMSO) (Table 3).

BaF3-BCR/ABL-T315I = target: T2, BaF3-BCR/ABL-T315I (Homo sapiens, UniProt P00519, T315I, cells depend on it); assay: as above; conditions: 48 hours, cell viability, read-out: BCR/ABL T315I IC50
T2 construct: fused on or other part: P11274 (Breakpoint cluster region protein)
Method: as §1, §2, §3, §4

BaF3-KRASD12 = assay: Oncogenic RAS dependent cell proliferation (CellTiter Glo); conditions: Mus musculus, BaF3-KRASD12 cells, 48 hours, read-out: KRas-BaF3 IC50
Method: (§5) The BaF/3 cell line transformed with oncogenic NRAS or KRAS (BaF/3-NRASD12 or BaF/3-KRASD12) and the parental BaF/3 cells were used to measure the abilities of compounds of the invention to suppress RAS transformation (Table 5). Cells were seeded at a density of 5000 cells/well into 96-well plates. […] The background control wells to which media with no cells added and the vehicle control wells were included on each plate in triplicate. Cell viability was determined using CellTiter Glo Assay (Promega) according to manufacture's instruction with a minor modification of diluting 1 part CellTiter Glo reagent to 4 parts phosphate buffered saline (PBS) before use. The luminescence value was read out by an Envision (PerkinElmer).

BaF3-NRASD12 = assay: as above; conditions: Mus musculus, BaF3-NRASD12 cells, 48 hours, read-out: NRas-BaF3 IC50
Method: as §5

BaF3-TEL-LYN = target: T3, BaF3-TEL-LYN (Homo sapiens, UniProt P07948); assay: Antiproliferative activity, kinase-dependent Ba/F3 cells (MTT/MTS); conditions: 48 hours, cell viability, read-out: tel-LYN IC50
T3 construct: fused on or other part: P41212 (Transcription factor ETV6)
Method: as §1, §2, §3, §4
(§6) Cell proliferation assays of compounds of the invention against TIE1, LYN, EML4-ALK, INSR and Hck were conducted using identical methods as described above for BCR/ABL, except that BaF3-TEL-TIE1, BaF3-TEL-LYN, BaF3-EML4-ALK, BaF3-TEL-INSR, and BaF3-TEL-HCK are used instead of BaF3-BCR/ABL (Table 3 and 4).

BaF3-TEL-TIE1 = target: T4, BaF3-TEL-TIE1 (Homo sapiens, UniProt P35590); assay: as above; conditions: 48 hours, cell viability, read-out: tel-TIE1 IC50
T4 construct: fused on or other part: P41212 (Transcription factor ETV6)
Method: as §1, §2, §3, §4, §6

BaF3-EML4-ALK = target: T5, BaF3-EML4-ALK (Homo sapiens, UniProt Q9UM73); assay: as above; conditions: 48 hours, cell viability, read-out: EML4-ALK IC50
T5 construct: fused on or other part: Q9HC35 (Echinoderm microtubule-associated protein-like 4)
Method: as §1, §2, §3, §4, §6

Wt-BaF3 = assay: Parental Ba/F3 cell proliferation (CellTiter Glo); conditions: Mus musculus, parental BaF/3 cells, 48 hours
Method: as §2, §5

T5 sequence (Q9UM73 whole entry, change not shown, the tested form may be a part): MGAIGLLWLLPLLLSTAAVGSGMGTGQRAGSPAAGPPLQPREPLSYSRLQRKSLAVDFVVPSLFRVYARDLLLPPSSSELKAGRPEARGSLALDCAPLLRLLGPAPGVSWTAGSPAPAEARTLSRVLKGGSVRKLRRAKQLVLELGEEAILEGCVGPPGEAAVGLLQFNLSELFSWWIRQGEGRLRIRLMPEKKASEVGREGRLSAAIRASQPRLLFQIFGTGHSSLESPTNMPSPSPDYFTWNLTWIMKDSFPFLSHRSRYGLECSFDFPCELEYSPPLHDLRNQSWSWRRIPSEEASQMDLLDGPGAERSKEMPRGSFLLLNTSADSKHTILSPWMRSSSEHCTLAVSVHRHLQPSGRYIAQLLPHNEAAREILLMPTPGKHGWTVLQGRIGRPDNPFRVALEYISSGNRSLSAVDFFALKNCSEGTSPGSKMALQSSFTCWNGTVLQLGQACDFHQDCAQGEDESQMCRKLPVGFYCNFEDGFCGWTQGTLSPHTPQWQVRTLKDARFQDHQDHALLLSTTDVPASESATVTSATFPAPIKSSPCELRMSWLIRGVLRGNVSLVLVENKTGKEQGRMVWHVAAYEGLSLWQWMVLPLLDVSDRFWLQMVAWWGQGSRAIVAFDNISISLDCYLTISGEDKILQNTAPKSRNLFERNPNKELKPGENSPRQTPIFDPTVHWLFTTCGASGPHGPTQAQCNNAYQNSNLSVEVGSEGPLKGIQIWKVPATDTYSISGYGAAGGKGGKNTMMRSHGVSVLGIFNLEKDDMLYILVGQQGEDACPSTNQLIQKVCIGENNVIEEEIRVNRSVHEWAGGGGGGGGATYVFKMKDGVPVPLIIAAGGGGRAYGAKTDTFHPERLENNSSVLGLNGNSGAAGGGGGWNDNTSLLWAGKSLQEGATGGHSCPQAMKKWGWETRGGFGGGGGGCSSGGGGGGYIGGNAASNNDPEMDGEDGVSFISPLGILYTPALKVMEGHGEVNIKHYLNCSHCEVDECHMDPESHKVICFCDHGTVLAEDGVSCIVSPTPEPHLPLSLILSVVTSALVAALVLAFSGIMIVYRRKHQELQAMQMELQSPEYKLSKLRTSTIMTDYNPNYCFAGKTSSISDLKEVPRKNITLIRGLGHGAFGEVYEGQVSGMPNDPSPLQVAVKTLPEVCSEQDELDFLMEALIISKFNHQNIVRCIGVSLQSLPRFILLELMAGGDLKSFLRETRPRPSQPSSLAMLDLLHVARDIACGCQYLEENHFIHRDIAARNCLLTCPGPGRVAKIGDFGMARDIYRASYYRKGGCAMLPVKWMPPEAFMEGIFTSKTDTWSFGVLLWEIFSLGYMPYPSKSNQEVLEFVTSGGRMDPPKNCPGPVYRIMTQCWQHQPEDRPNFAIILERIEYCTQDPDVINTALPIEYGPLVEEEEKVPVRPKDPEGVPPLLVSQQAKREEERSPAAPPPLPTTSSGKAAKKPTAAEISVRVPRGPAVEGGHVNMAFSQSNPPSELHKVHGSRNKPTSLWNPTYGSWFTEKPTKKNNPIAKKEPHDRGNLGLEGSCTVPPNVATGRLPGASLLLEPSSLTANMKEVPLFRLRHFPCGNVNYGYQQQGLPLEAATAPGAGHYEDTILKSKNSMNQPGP
T4 sequence (P35590 whole entry, change not shown, the tested form may be a part): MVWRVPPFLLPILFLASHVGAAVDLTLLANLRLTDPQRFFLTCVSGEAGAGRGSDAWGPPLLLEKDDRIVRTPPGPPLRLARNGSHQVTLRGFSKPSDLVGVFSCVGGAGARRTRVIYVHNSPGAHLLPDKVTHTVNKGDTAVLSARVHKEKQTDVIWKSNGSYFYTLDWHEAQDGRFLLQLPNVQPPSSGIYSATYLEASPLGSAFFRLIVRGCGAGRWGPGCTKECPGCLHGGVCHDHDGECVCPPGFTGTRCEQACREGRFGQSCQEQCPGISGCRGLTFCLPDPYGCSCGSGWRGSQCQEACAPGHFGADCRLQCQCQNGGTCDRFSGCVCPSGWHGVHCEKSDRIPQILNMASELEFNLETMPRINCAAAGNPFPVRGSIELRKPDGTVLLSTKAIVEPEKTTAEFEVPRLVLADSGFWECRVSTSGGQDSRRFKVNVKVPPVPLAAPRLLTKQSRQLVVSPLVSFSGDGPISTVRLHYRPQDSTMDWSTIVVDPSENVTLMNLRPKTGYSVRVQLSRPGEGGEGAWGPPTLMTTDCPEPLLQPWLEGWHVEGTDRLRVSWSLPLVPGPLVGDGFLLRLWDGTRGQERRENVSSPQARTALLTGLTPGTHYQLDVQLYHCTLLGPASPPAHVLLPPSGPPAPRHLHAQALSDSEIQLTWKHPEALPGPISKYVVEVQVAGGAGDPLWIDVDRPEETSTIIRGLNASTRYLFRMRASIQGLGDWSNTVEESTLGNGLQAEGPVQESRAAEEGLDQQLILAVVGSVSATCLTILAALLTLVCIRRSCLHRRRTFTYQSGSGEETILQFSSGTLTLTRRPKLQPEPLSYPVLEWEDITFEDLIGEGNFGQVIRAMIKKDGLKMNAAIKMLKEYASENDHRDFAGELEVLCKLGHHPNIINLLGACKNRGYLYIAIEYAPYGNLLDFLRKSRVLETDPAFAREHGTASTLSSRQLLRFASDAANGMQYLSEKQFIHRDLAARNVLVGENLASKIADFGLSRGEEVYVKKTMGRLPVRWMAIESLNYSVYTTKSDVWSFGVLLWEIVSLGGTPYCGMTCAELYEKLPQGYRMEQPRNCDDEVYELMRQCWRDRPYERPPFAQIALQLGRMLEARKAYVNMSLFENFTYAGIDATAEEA
T3 sequence (P07948 whole entry, change not shown, the tested form may be a part): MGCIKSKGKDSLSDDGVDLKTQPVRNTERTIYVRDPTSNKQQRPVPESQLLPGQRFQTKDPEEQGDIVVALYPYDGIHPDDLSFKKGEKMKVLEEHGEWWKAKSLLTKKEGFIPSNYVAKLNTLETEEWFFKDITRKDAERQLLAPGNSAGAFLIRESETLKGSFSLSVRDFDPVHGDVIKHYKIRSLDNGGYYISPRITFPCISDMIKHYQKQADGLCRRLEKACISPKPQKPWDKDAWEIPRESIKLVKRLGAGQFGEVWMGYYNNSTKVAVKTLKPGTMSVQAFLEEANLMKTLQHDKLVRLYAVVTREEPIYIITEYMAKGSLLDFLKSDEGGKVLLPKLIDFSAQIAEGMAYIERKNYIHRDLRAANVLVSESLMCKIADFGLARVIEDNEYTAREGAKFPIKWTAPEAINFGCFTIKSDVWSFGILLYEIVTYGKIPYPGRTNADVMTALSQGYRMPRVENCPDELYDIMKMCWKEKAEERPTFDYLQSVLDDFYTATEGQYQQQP

Row | Compound | GI50 (BaF3-BCR/ABL) | GI50 (BaF3-BCR/ABL-T315I) | IC50 (BaF3-KRASD12) | IC50 (BaF3-NRASD12) | GI50 (BaF3-TEL-LYN) | GI50 (BaF3-TEL-TIE1) | GI50 (BaF3-EML4-ALK) | IC50 (Wt-BaF3)
1 | Cc1ccc(NC(=O)c2cccc(C(F)(F)F)c2)cc1N1Cc2cnc(NC3CCN(C)CC3)nc2N(C)C1 [IA-1, N-(4-methyl-3-(1-methyl-7-((1-methylpiperidin-4-yl)amino)-1,4-dihydropyrimido[4,5-d]pyrimidin-3(2H)-yl)phenyl)-3-(trifluoromethyl)benzamide] | 4.28 µM | 4.15 µM | 10.1 µM | 5.22 µM | ~2.79 µM | 1.75 µM | 1.53 µM | 8.83 µM
2 | Cc1ccc(NC(=O)c2cccc(C(F)(F)F)c2)cc1N1Cc2cnc(Nc3ccc(N4CCN(C)CC4)nc3)nc2N(C)C1 [IA-14, N-(4-methyl-3-(1-methyl-7-((6-(4-methylpiperazin-1-yl)pyridin-3-yl)amino)-1,4-dihydropyrimido[4,5-d]pyrimidin-3(2H)-yl)phenyl)-3-(trifluoromethyl)benzamide] |  |  | 1.46 µM | 1.53 µM |  |  |  | 3.67 µM
3 | Cc1ccc(Nc2ncc3c(n2)N(C)CN(c2cc(NC(=O)c4cccc(C(F)(F)F)c4)ccc2Cl)C3)cn1 [IC-7, N-(4-chloro-3-(1-methyl-7-((6-methylpyridin-3-yl)amino)-1,4-dihydropyrimido[4,5-d]pyrimidin-3(2H)-yl)phenyl)-3-(trifluoromethyl)benzamide] | 9 µM | > 10 µM |  |  | 5.34 µM | 6.85 µM | 9.73 µM | 
4 | CN1CN(c2ccc(Cl)c(C(F)(F)F)c2)Cc2cnc(Nc3ccc(N4CCOCC4)nc3)nc21 [ID-1, 6-(4-chloro-3-(trifluoromethyl)phenyl)-8-methyl-N-(6-morpholinopyridin-3-yl)-5,6,7,8-tetrahydropyrimido[4,5-d]pyrimidin-2-amine] |  | > 10 µM |  |  | > 10 µM | > 10 µM | > 10 µM | 
5 | CN1CN(c2ccc(F)c(Cl)c2)Cc2cnc(Nc3ccc(N4CCOCC4)nc3)nc21 [ID-2, 6-(3-chloro-4-fluorophenyl)-8-methyl-N-(6-morpholinopyridin-3-yl)-5,6,7,8-tetrahydropyrimido[4,5-d]pyrimidin-2-amine] | > 10 µM | > 10 µM |  |  | 20.5 µM | 11.8 µM | > 10 µM | 
6 | CN1CN(c2ccc(Br)cc2F)Cc2cnc(Nc3ccc(N4CCOCC4)nc3)nc21 [ID-3, 6-(4-bromo-2-fluorophenyl)-8-methyl-N-(6-morpholinopyridin-3-yl)-5,6,7,8-tetrahydropyrimido[4,5-d]pyrimidin-2-amine] | > 10 µM | > 10 µM |  |  | 7.27 µM | 4.55 µM | 20 µM | 
7 | Cc1ccc(C(F)(F)F)cc1N1Cc2cnc(Nc3ccc(N4CCOCC4)nc3)nc2N(C)C1 [ID-4, 8-methyl-6-(2-methyl-5-(trifluoromethyl)phenyl)-N-(6-morpholinopyridin-3-yl)-5,6,7,8-tetrahydropyrimido[4,5-d]pyrimidin-2-amine] | 1.63 µM | > 10 µM |  |  | 4.29 µM | 4.43 µM | 8.24 µM | 
8 | CN1CN(c2cccc(C(F)(F)F)c2)Cc2cnc(Nc3ccc(N4CCOCC4)nc3)nc21 [ID-5, 8-methyl-N-(6-morpholinopyridin-3-yl)-6-(3-(trifluoromethyl)phenyl)-5,6,7,8-tetrahydropyrimido[4,5-d]pyrimidin-2-amine] |  | > 10 µM |  |  | 15 µM | 6.17 µM | > 10 µM | 
9 | Cc1ccc(N)cc1N1Cc2cnc(Nc3ccc(N4CCOCC4)nc3)nc2N(C)C1 [ID-6, 6-(5-amino-2-methylphenyl)-8-methyl-N-(6-morpholinopyridin-3-yl)-5,6,7,8-tetrahydropyrimido[4,5-d]pyrimidin-2-amine] | 0.353 µM | > 10 µM |  |  | 2.31 µM | 0.809 µM | > 10 µM | 
